We go through 23 compounds from patent publication US12479850B2, “Compound having Axl and c-Met kinase inhibitory activity, preparation thereof and application thereof” (Shanghai Institute of Materia Medica, Chinese Academy of …, priority 2019, dated 2025).

Assay [1] addresses T1, Axl kinase domain recombinant protein (Homo sapiens, UniProt P30530).
T1 sequence (P30530 536-807 limits assumed): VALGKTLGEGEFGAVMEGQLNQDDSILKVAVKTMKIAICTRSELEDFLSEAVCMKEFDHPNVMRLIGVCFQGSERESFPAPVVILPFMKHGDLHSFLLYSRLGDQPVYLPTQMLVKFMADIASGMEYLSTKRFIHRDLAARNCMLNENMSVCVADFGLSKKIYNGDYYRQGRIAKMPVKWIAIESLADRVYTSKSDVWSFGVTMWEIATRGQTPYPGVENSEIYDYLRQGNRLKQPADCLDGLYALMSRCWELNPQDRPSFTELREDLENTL
The assay can be described thus: ELISA kinase activity assay, Axl. On the technique in general: In an ELISA, binding on a coated surface is turned into a signal by an enzyme label.

Assay [2] concerns the target c-Met kinase domain recombinant protein (Homo sapiens, UniProt P08581). Put plainly: ELISA kinase activity assay, c-Met.

Structures are written as SMILES. pIC50: −log10 of the molar value.

The pIC50 is −log10 of the IC50, conventionally taken in molar units.

Chain of c-Met kinase domain recombinant protein (P08581 1078-1345 limits assumed): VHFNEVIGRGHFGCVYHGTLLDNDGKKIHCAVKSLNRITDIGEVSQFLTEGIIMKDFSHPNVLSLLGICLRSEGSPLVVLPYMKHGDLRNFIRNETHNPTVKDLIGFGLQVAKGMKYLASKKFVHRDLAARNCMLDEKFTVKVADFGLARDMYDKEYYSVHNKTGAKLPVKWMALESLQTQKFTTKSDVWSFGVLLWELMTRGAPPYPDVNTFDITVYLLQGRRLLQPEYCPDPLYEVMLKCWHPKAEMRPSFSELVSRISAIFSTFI

As to `Cn1cc(-c2cc(Oc3ccc(NC(=O)c4cn(C)c(=O)n(-c5ccc(F)cc5)c4=O)cc3F)ccn2)cn1` [No. 1, N-(3-fluoro-4-((2-(1-methyl-1H-pyrazol-4-yl)pyridin-4-yl)oxy)phenyl)-3-(4-fluorophenyl)-1-methyl-2,4-dioxo-1,2,3,4-tetrahydropyrimidin-5-carboxamide], the pIC50 in assay [1] and in assay [2] was more than 8.00 throughout.

As to `CCn1cc(C(=O)Nc2ccc(Oc3ccnc(-c4cnn(C)c4)c3)c(F)c2)c(=O)n(-c2ccc(F)cc2)c1=O` [No. 2, 1-ethyl-N-(3-fluoro-4-((2-(1-methyl-1H-pyrazol-4-yl)pyridin-4-yl)oxy)phenyl)-3-(4-fluorophenyl)-2,4-dioxo-1,2,3,4-tetrahydropyrimidin-5-formamide], the pIC50 in assay [1] and in assay [2] was more than 8.00 in each case.

For the compound `CC(C)n1cc(C(=O)Nc2ccc(Oc3ccnc(-c4cnn(C)c4)c3)c(F)c2)c(=O)n(-c2ccc(F)cc2)c1=O` [No. 3, N-(3-fluoro-4-((2-(1-methyl-1H-pyrazol-4-yl)pyridin-4-yl)oxy)phenyl)-3-(4-fluorophenyl)-1-isopropyl-2,4-dioxo-1,2,3,4-tetrahydropyrimidin-5-carboxamide], the pIC50 in assay [2] was more than 8.00.

Regarding `CCCn1cc(C(=O)Nc2ccc(Oc3ccnc(-c4cnn(C)c4)c3)c(F)c2)c(=O)n(-c2ccc(F)cc2)c1=O` [No. 4, N-(3-fluoro-4-((2-(1-methyl-1H-pyrazol-4-yl)pyridin-4-yl)oxy)phenyl)-3-(4-fluorophenyl)-1-propyl-2,4-dioxo-1,2,3,4-tetrahydropyrimidin-5-carboxamide], the negative-log IC50 (pIC50) in assay [1] and in assay [2] was more than 8.00 in each case.

As for `Cn1cc(-c2cc(Oc3ccc(NC(=O)c4cn(CC5CC5)c(=O)n(-c5ccc(F)cc5)c4=O)cc3F)ccn2)cn1` [No. 5, 1-(cyclopropylmethyl)-N-(3-fluoro-4-((2-(1-methyl-1H-pyrazol-4-yl)pyridin-4-yl)oxy)phenyl)-3-(4-fluorophenyl)-2,4-dioxo-1,2,3,4-tetrahydropyrimidin-5-carboxamide], the negative logarithm of the IC50 (pIC50) in assay [1] and in assay [2] was more than 8.00 each time.

As to `Cn1cc(-c2cc(Oc3ccc(NC(=O)c4cn(CC5CCCC5)c(=O)n(-c5ccc(F)cc5)c4=O)cc3F)ccn2)cn1` [No. 6, 1-(cyclopentylmethyl)-N-(3-fluoro-4-((2-(1-methyl-1H-pyrazol-4-yl)pyridin-4-yl)oxy)phenyl)-3-(4-fluorophenyl)-2,4-dioxo-1,2,3,4-tetrahydropyrimidin-5-carboxamide], the pIC50 in assay [1] and in assay [2] was 7.00 to 8.00 throughout.

For the compound `C=CCn1cc(C(=O)Nc2ccc(Oc3ccnc(-c4cnn(C)c4)c3)c(F)c2)c(=O)n(-c2ccc(F)cc2)c1=O` [No. 7, 1-allyl-N-(3-fluoro-4-((2-(1-methyl-1H-pyrazol-4-yl)pyridin-4-yl)oxy)phenyl)-3-(4-fluorophenyl)-2,4-dioxo-1,2,3,4-tetrahydropyrimidin-5-carboxamide], the pIC50 in assay [1] and in assay [2] was more than 8.00 in each case.

As to `C#CCn1cc(C(=O)Nc2ccc(Oc3ccnc(-c4cnn(C)c4)c3)c(F)c2)c(=O)n(-c2ccc(F)cc2)c1=O` [No. 8, N-(3-fluoro-4-((2-(1-methyl-1H-pyrazol-4-yl)pyridin-4-yl)oxy)phenyl)-3-(4-fluorophenyl)-2,4-dioxo-1-propargyl-1,2,3,4-tetrahydropyrimidin-5-carboxamide], the negative logarithm of the IC50 (pIC50) in assay [1] and in assay [2] was 7.00 to 8.00 each time.

Regarding `CC(C)n1cc(C(=O)Nc2ccc(Oc3ccnc(-c4cnn(C)c4)c3)cc2)c(=O)n(-c2ccc(F)cc2)c1=O` [No. 25, 3-(4-fluorophenyl)-1-isopropyl-N-(4-((2-(1-methyl-1H-pyrazol-4-yl)pyridin-4-yl)oxy)phenyl)-2,4-dioxo-1,2,3,4-tetrahydropyrimidin-5-carboxamide], the pIC50 in assay [2] was more than 8.00.

Consider `CC(C)n1cc(C(=O)Nc2ccc(Oc3ccnc(-c4cnn(C)c4)c3)cc2F)c(=O)n(-c2ccc(F)cc2)c1=O` [No. 26, N-(2-fluoro-4-((2-(1-methyl-1H-pyrazol-4-yl)pyridin-4-yl)oxy)phenyl)-3-(4-fluorophenyl)-1-isopropyl-2,4-dioxo-1,2,3,4-tetrahydropyrimidin-5-carboxamide], for which, in assay [2], the negative logarithm of the IC50 (pIC50) was more than 8.00.

With `CC(C)n1cc(C(=O)Nc2ccc(Oc3ccnc(-c4cnn(C)c4)c3)c(F)c2F)c(=O)n(-c2ccc(F)cc2)c1=O` [No. 27, N-(2,3-difluoro-4-((2-(1-methyl-1H-pyrazol-4-yl)pyridin-4-yl)oxy)phenyl)-3-(4-fluorophenyl)-1-isopropyl-2,4-dioxo-1,2,3,4-tetrahydropyrimidin-5-carboxamide], the pIC50 in assay [2] is 7.00 to 8.00.

On to `CC(C)n1cc(C(=O)Nc2cc(F)c(Oc3ccnc(-c4cnn(C)c4)c3)c(F)c2)c(=O)n(-c2ccc(F)cc2)c1=O` [No. 28, N-(3,5-difluoro-4-((2-(1-methyl-1H-pyrazol-4-yl)pyridin-4-yl)oxy)phenyl)-3-(4-fluorophenyl)-1-isopropyl-2,4-dioxo-1,2,3,4-tetrahydropyrimidin-5-carboxamide], for which the negative-log IC50 (pIC50) in assay [2] is more than 8.00.

For `CC(C)n1cc(C(=O)Nc2cc(F)c(Oc3ccnc(-c4cnn(C)c4)c3)cc2F)c(=O)n(-c2ccc(F)cc2)c1=O` [No. 29, N-(2,5-difluoro-4-((2-(1-methyl-1H-pyrazol-4-yl)pyridin-4-yl)oxy)phenyl)-3-(4-fluorophenyl)-1-isopropyl-2,4-dioxo-1,2,3,4-tetrahydropyrimidin-5-carboxamide], the pIC50 in assay [2] is more than 8.00.

As to `CC(C)n1cc(C(=O)Nc2ccc(Oc3ccnc(-c4cn[nH]c4)c3)c(F)c2)c(=O)n(-c2ccc(F)cc2)c1=O` [No. 31, N-(4-((2-(1H-pyrazol-4-yl)pyridin-4-yl)oxy)-3-fluorophenyl)-3-(4-fluorophenyl)-1-isopropyl-2,4-dioxo-1,2,3,4-tetrahydropyrimidin-5-carboxamide], the negative-log IC50 (pIC50) in assay [2] is 7.00 to 8.00.

In the case of `CC(C)n1cc(C(=O)Nc2ccc(Oc3ccnc(-c4cnn(CC(C)(C)O)c4)c3)c(F)c2)c(=O)n(-c2ccc(F)cc2)c1=O` [No. 32, N-(3-fluoro-4-((2-(1-(2-hydroxy-2-methylpropyl)-1H-pyrazol-4-yl)pyridin-4-yl)oxy)phenyl)-3-(4-fluorophenyl)-1-isopropyl-2,4-dioxo-1,2,3,4-tetrahydropyrimidin-5-carboxamide], the pIC50 in assay [2] is 7.00 to 8.00.

Turning to `CC(C)n1cc(C(=O)Nc2ccc(Oc3ccnc(-c4cnn(C5CC5)c4)c3)c(F)c2)c(=O)n(-c2ccc(F)cc2)c1=O` [No. 33, N-(4-((2-(1-cyclopropyl-1H-pyrazol-4-yl)pyridin-4-yl)oxy)-3-fluorophenyl)-3-(4-fluorophenyl)-1-isopropyl-2,4-dioxo-1,2,3,4-tetrahydropyrimidin-5-carboxamide], the negative-log IC50 (pIC50) in assay [2] was 7.00 to 8.00.

As to `CC(C)n1cc(C(=O)Nc2ccc(Oc3ccnc(-c4cnn(CCN5CCN(C)CC5)c4)c3)c(F)c2)c(=O)n(-c2ccc(F)cc2)c1=O` [No. 34, N-(3-fluoro-4-((2-(1-(2-(4-methylpiperazin-1-yl)ethyl)-1H-pyrazol-4-yl)pyridin-4-yl)oxy)phenyl)-3-(4-fluorophenyl)-1-isopropyl-2,4-dioxo-1,2,3,4-tetrahydropyrimidin-5-carboxamide], in assay [2], the pIC50 is 7.00 to 8.00.

Consider `Cc1nn(C)cc1-c1cc(Oc2ccc(NC(=O)c3cn(C(C)C)c(=O)n(-c4ccc(F)cc4)c3=O)cc2F)ccn1` [No. 35, N-(4-((2-(1,3-dimethyl-1H-pyrazol-4-yl)pyridin-4-yl)oxy)-3-fluorophenyl)-3-(4-fluorophenyl)-1-isopropyl-2,4-dioxo-1,2,3,4-tetrahydropyrimidin-5-carboxamide], for which the pIC50 in assay [2] is 7.00 to 8.00.

Consider `CC(C)n1cc(C(=O)Nc2ccc(Oc3ccncc3-c3cnn(C)c3)cc2)c(=O)n(-c2ccc(F)cc2)c1=O` [No. 36, 3-(4-fluorophenyl)-1-isopropyl-N-(4-((3-(1-methyl-1H-pyrazol-4-yl)pyridin-4-yl)oxy)phenyl)-2,4-dioxo-1,2,3,4-tetrahydropyrimidin-5-carboxamide], for which, in assay [2], the negative-log IC50 (pIC50) is 7.00 to 8.00.

With `CCn1cc(C(=O)Nc2ccc(Oc3ccncc3-c3cnn(C)c3)cc2)c(=O)n(-c2ccc(F)cc2)c1=O` [No. 52, 3-(4-fluorophenyl)-1-ethyl-N-(4-((3-(1-methyl-1H-pyrazol-4-yl)pyridin-4-yl)oxy)phenyl)-2,4-dioxo-1,2,3,4-tetrahydropyrimidin-5-carboxamide], in assay [2], the pIC50 is 7.00 to 8.00.

Consider `Cn1cc(-c2cnccc2Oc2ccc(NC(=O)c3cn(C)c(=O)n(-c4ccc(F)cc4)c3=O)cc2)cn1` [No. 53, 3-(4-fluorophenyl)-1-methyl-N-(4-((3-(1-methyl-1H-pyrazol-4-yl)pyridin-4-yl)oxy)phenyl)-2,4-dioxo-1,2,3,4-tetrahydropyrimidin-5-carboxamide], for which the pIC50 in assay [2] is less than 7.00.

On to `Cn1cc(-c2cnccc2Oc2ccc(NC(=O)c3cn(CC4CCOCC4)c(=O)n(-c4ccc(F)cc4)c3=O)cc2)cn1` [No. 54, 3-(4-fluorophenyl)-N-(4-((3-(1-methyl-1H-pyrazol-4-yl)pyridin-4-yl)oxy)phenyl)-2,4-dioxo-1-((tetrahydro-2H-pyran-4-yl)methyl)-1,2,3,4-tetrahydropyrimidin-5-carboxamide], for which, in assay [2], the pIC50 was 7.00 to 8.00.

Turning to `COc1cc(NC(=O)c2cn(C(C)C)c(=O)n(-c3ccc(F)cc3)c2=O)ccc1Oc1ccnc(-c2cnn(C)c2)c1` [No. 58, 3-(4-fluorophenyl)-1-isopropyl-N-(3-methoxy-4-((2-(1-methyl-1H-pyrazol-4-yl)pyridin-4-yl)oxy)phenyl)-2,4-dioxo-1,2,3,4-tetrahydropyrimidin-5-carboxamide], the pIC50 in assay [1] was less than 7.00.
